Assays:
[1] = tested on: acetylcholinesterase; experiment: AChE inhibition, Ellman assay, summary statements across enzymes; assay type: biochemical; settings: abstract
Description: In vitro biochemical assays utilized five acetylcholinesterase (AChE) enzymes. Recombinant human AChE (hAChE) was purchased from a commercial source (lyophilized powder, Sigma C1682, St. Louis, MO, USA). Homogenates to prepare Anopheles gambiae AChE (AgAChE) were obtained from the wild type G3 strain and the resistant AKRON strain (BEI Resources; http://www.beiresources.org/). AKRON mosquitoes (from Benin and donated by M. Akogbeto) have both knockdown resistance (kdr) to pyrethroids (L1014F sodium channel mutation) and the G119S AChE mutation (ace-1R), which confers resistance to carbamates, [15]. Both strains were cultured in the Emerging Pathogens Institute, University of Florida, Gainesville, FL, USA from eggs provided by the Center for Disease Control, Atlanta, GA, USA. Homogenates were also used to prepare Aedes aegypti AChE (AeAChE) from mosquitoes provided by the CMAVE, USDA-ARS, Gainesville, FL, USA; Musca domestica AChE (MdAChE) from flies cultured in the Department of Entomology and Nematology, Medical Entomology Laboratory, University of Florida, Gainesville, FL, USA); and Drosophila melanogaster AChE (DmAChE) from flies (Oregon-R strain) cultured in the Emerging Pathogens Institute, University of Florida, Gainesville, FL, USA. Homogenate enzymes were prepared from groups of ten non-blood fed adult female mosquitoes, five whole bodied Drosophila, or three Musca heads homogenized in 1 mL of ice-cold sodium phosphate buffer (0.1 M sodium phosphate, pH 7.8) with an electric motor driven glass tissue homogenizer. The homogenate was centrifuged at 5000×g using a Sorvall Fresco refrigerated centrifuge at 4 °C for 5 minutes. […]
Inhibition of AChE was determined using the Ellman assay and was based on the method outlined in Carlier et al.. […] Changes in absorbance were recorded by a DYNEX Triad spectrophotometer (DYNEX Technologies, Chantilly, VA, USA) at 405 nm. Enzyme concentrations used were within the linear range, therefore eliminating the need for protein quantification.

[2] = tested on: DmAChE, human AChE and butyrylcholinesterase; parameters: method as in PMID 19656357; settings: cited from earlier work
[3] = tested on: A. gambiae (AKRON); experiment: Topical toxicity bioassay on adult females; assay type: in vivo, Anopheles gambiae
Description: (§1) Topical toxicity bioassays on adult female mosquitoes were performed based on the method of Pridgeon et al.. Briefly, insects were chilled on ice for 3 min, during which the appropriate volume (200 nL for mosquitoes, 1 µL for Musca) of chemical (dissolved in 95% ethanol) was applied onto the abdomen using a handheld Hamilton microapplicator. For each inhibitor, five doses were applied to groups of ten insects each and repeated three times. An ethanol-only treatment was included in each experiment as a negative control. Insects were transferred into a holding chamber post-treatment and supplied with free access to sugar water for the duration of the experiment. […] Three LD50 values were obtained and the mean LD50 value was calculated and used for statistical analysis.
(§2) For all toxicity assays, control mortality was corrected for using Abbots formula [19]; where corrected percent mortality = (% alive in control–% alive in treated) /% alive in control.

[4] = tested on: A. gambiae (G3); experiment: Topical toxicity bioassay on adult females; assay type: in vivo, Anopheles gambiae; settings: topical application, ng of compound/mg of mosquito weight, 24 hr
Description: as §1, §2

Question: With CCN(CC)C(=O)c1cccc(C)c1 [DEET, N, N-diethyl-meta-toluamide] as the molecule, how does the acetylcholinesterase inhibition ([1]; 10 mM) read?
Answer: < 10%

Question: What about the IC50 ([1]; Drosophila melanogaster, Musca domestica, and human acetylcholinesterases) of the same molecule?
Answer: 6 to 12 mM

Question: And the “concentrations showing inhibitory effects” value [2]?
Answer: 0.1 to 10 mM

Question: And the “LD50 (+PBO) (95% CI)” value ([3]; topical application after 4 hr pretreatment with 200 ng PBO)?
Answer: 1247 (872–1526)a ng/ml

Question: What about the “LD50 (95% CI)” value ([3]; topical application, ng of compound/mg of mosquito weight, 24 hr) of the same molecule?
Answer: 1472 (1136–1806)b ng/mg

Question: And the “LD50 (95% CI)” value [4]?
Answer: 1175 (988–1361)a ng/mg

From paper PMC4125160, “Neurotoxicity and Mode of Action of N, N-Diethyl-Meta-Toluamide (DEET)” (PLoS ONE, 2014)
